Source: ChEMBL document CHEMBL3885881, “DrugMatrix”

Organism: Rattus norvegicus
Assay: DrugMatrix - Regimen: Daily Repeat
Type: toxicity, organism-based, Sprague-Dawley
Parameters: regimen Daily Repeat, gender Male, age 6-8 weeks
Settings: in vivo, po, route oral GAVAGE, vehicle 100 % WATER; for ABSOLUTE BASOPHIL / ABSOLUTE EOSINOPHIL / ABSOLUTE LYMPHOCYTE / ABSOLUTE MONOCYTE / ABSOLUTE SEGMENTED NEUTROPHIL / BASOPHIL / EOSINOPHIL / ERYTHROCYTE COUNT / HEMATOCRIT / HEMOGLOBIN / LEUKOCYTE COUNT / LYMPHOCYTE / MEAN CORPUSCULAR HEMOGLOBIN / MEAN CORPUSCULAR HEMOGLOBIN CONCENTRATION / MEAN CORPUSCULAR VOLUME / MONOCYTE / NEUTROPHIL / NUCLEATED RED BLOOD CELLS / PLATELET COUNT: tissue Blood; for ALANINE AMINOTRANSFERASE / ALBUMIN / ALKALINE PHOSPHATASE / ASPARTATE AMINOTRANSFERASE / BLOOD UREA NITROGEN / CARBON DIOXIDE / CHLORIDE / CHOLESTEROL / CREATINE PHOSPHOKINASE / CREATININE / GLUCOSE / LACTATE DEHYDROGENASE / LIPASE / PHOSPHORUS / POTASSIUM / SODIUM / TOTAL BILIRUBIN / TOTAL PROTEIN / URIC ACID: tissue Plasma
[1] = 6 mg/kg, 120 h, dose level Low, time 5 day
[2] = 414 mg/kg, 72 h, dose level High, time 3 day
[3] = 414 mg/kg, 120 h, dose level High, time 5 day

CN1CCN(C(=O)OC2c3nccnc3C(=O)N2c2ccc(Cl)cn2)CC1 (centres undefined) [ZOPICLONE]
ABSOLUTE BASOPHIL [1]: 0 CELLS/uL
ABSOLUTE EOSINOPHIL [1]: 89.67 CELLS/uL
ABSOLUTE LYMPHOCYTE [1]: 11847.67 CELLS/uL
ABSOLUTE MONOCYTE [1]: 80.67 CELLS/uL
ABSOLUTE SEGMENTED NEUTROPHIL [1]: 982 CELLS/uL
BASOPHIL [1]: 0%
EOSINOPHIL [1]: 0.67%
ERYTHROCYTE COUNT [1]: 6 x10E6/uL
HEMATOCRIT [1]: 36.37%
HEMOGLOBIN [1]: 14 G/DL
LEUKOCYTE COUNT [1]: 13 x10E3/uL
LYMPHOCYTE [1]: 91%
MEAN CORPUSCULAR HEMOGLOBIN [1]: 23.3 pg
MEAN CORPUSCULAR HEMOGLOBIN CONCENTRATION [1]: 38.5 G/DL
MEAN CORPUSCULAR VOLUME [1]: 60.6 fL
MONOCYTE [1]: 0.67%
NEUTROPHIL [1]: 7.67%
NUCLEATED RED BLOOD CELLS [1]: 0 /100WBC
PLATELET COUNT [1]: 827.33 x10E3/uL
ALANINE AMINOTRANSFERASE [1]: 51.67 u/L
ALBUMIN [1]: 4.07 G/DL
ALKALINE PHOSPHATASE [1]: 386.67 u/L
ASPARTATE AMINOTRANSFERASE [1]: 91.33 u/L
BLOOD UREA NITROGEN [1]: 15 mg/dL
CARBON DIOXIDE [1]: 32 mmol/L
CHLORIDE [1]: 101.67 MEQ/L
CHOLESTEROL [1]: 61.33 mg/dL
CREATINE PHOSPHOKINASE [1]: 428.33 u/L
CREATININE [1]: 0.13 mg/dL
GLUCOSE [1]: 151.33 mg/dL
LACTATE DEHYDROGENASE [1]: 157.67 u/L
LIPASE [1]: 10 u/L
PHOSPHORUS [1]: 12.2 mg/dL
POTASSIUM [1]: 6.32 MEQ/L
SODIUM [1]: 146.2 MEQ/L
TOTAL BILIRUBIN [1]: 0.17 mg/dL
TOTAL PROTEIN [1]: 6.03 G/DL
URIC ACID [1]: 1.17 mg/dL
ABSOLUTE BASOPHIL [2]: 0 CELLS/uL
ABSOLUTE EOSINOPHIL [2]: 54 CELLS/uL
ABSOLUTE LYMPHOCYTE [2]: 11865 CELLS/uL
ABSOLUTE MONOCYTE [2]: 279 CELLS/uL
ABSOLUTE SEGMENTED NEUTROPHIL [2]: 4168.67 CELLS/uL
BASOPHIL [2]: 0%
EOSINOPHIL [2]: 0.33%
ERYTHROCYTE COUNT [2]: 5.87 x10E6/uL
HEMATOCRIT [2]: 36.97%
HEMOGLOBIN [2]: 14.13 G/DL
LEUKOCYTE COUNT [2]: 16.37 x10E3/uL
LYMPHOCYTE [2]: 72.33%
MEAN CORPUSCULAR HEMOGLOBIN [2]: 24.1 pg
MEAN CORPUSCULAR HEMOGLOBIN CONCENTRATION [2]: 38.23 G/DL
MEAN CORPUSCULAR VOLUME [2]: 63.03 fL
MONOCYTE [2]: 1.67%
NEUTROPHIL [2]: 25.67%
NUCLEATED RED BLOOD CELLS [2]: 0 /100WBC
PLATELET COUNT [2]: 1420.33 x10E3/uL
ALANINE AMINOTRANSFERASE [2]: 76 u/L
ALBUMIN [2]: 3.9 G/DL
ALKALINE PHOSPHATASE [2]: 416.33 u/L
ASPARTATE AMINOTRANSFERASE [2]: 81 u/L
BLOOD UREA NITROGEN [2]: 15.67 mg/dL
CARBON DIOXIDE [2]: 31.67 mmol/L
CHLORIDE [2]: 101.33 MEQ/L
CHOLESTEROL [2]: 79 mg/dL
CREATINE PHOSPHOKINASE [2]: 490.67 u/L
CREATININE [2]: 0.17 mg/dL
GLUCOSE [2]: 142.33 mg/dL
LACTATE DEHYDROGENASE [2]: 208 u/L
LIPASE [2]: 10.67 u/L
PHOSPHORUS [2]: 9.37 mg/dL
POTASSIUM [2]: 5.75 MEQ/L
SODIUM [2]: 145.07 MEQ/L
TOTAL BILIRUBIN [2]: 0.13 mg/dL
TOTAL PROTEIN [2]: 5.97 G/DL
URIC ACID [2]: 0.43 mg/dL
ABSOLUTE BASOPHIL [3]: 0 CELLS/uL
ABSOLUTE EOSINOPHIL [3]: 34 CELLS/uL
ABSOLUTE LYMPHOCYTE [3]: 13648.67 CELLS/uL
ABSOLUTE MONOCYTE [3]: 500 CELLS/uL
ABSOLUTE SEGMENTED NEUTROPHIL [3]: 2484 CELLS/uL
BASOPHIL [3]: 0%
EOSINOPHIL [3]: 0.33%
ERYTHROCYTE COUNT [3]: 6.38 x10E6/uL
HEMATOCRIT [3]: 38.3%
HEMOGLOBIN [3]: 14.7 G/DL
LEUKOCYTE COUNT [3]: 16.67 x10E3/uL
LYMPHOCYTE [3]: 81%
MEAN CORPUSCULAR HEMOGLOBIN [3]: 23.07 pg
MEAN CORPUSCULAR HEMOGLOBIN CONCENTRATION [3]: 38.37 G/DL
MEAN CORPUSCULAR VOLUME [3]: 60.13 fL
MONOCYTE [3]: 3%
NEUTROPHIL [3]: 15.67%
NUCLEATED RED BLOOD CELLS [3]: 0 /100WBC
PLATELET COUNT [3]: 1154.67 x10E3/uL
ALANINE AMINOTRANSFERASE [3]: 76.67 u/L
ALBUMIN [3]: 3.57 G/DL
ALKALINE PHOSPHATASE [3]: 365 u/L
ASPARTATE AMINOTRANSFERASE [3]: 80.33 u/L
BLOOD UREA NITROGEN [3]: 15.33 mg/dL
CARBON DIOXIDE [3]: 30.33 mmol/L
CHLORIDE [3]: 102 MEQ/L
CHOLESTEROL [3]: 68 mg/dL
CREATINE PHOSPHOKINASE [3]: 261.33 u/L
CREATININE [3]: 0.22 mg/dL
GLUCOSE [3]: 118.67 mg/dL
LACTATE DEHYDROGENASE [3]: 110.33 u/L
LIPASE [3]: 11 u/L
PHOSPHORUS [3]: 11.23 mg/dL
POTASSIUM [3]: 6.36 MEQ/L
SODIUM [3]: 146.63 MEQ/L
TOTAL BILIRUBIN [3]: 0.1 mg/dL
TOTAL PROTEIN [3]: 5.73 G/DL
URIC ACID [3]: 1.53 mg/dL
